This note sets out measurements from publication doi:10.1101/2022.06.29.498065v2 (biorxiv, 2022).

The experiment addresses KFDV NS5 (Kyasanur Forest disease virus, UniProt D7RF80). As to the kind of experiment: biochemical.

Sequence of KFDV NS5 (D7RF80 2518-3410 limits assumed): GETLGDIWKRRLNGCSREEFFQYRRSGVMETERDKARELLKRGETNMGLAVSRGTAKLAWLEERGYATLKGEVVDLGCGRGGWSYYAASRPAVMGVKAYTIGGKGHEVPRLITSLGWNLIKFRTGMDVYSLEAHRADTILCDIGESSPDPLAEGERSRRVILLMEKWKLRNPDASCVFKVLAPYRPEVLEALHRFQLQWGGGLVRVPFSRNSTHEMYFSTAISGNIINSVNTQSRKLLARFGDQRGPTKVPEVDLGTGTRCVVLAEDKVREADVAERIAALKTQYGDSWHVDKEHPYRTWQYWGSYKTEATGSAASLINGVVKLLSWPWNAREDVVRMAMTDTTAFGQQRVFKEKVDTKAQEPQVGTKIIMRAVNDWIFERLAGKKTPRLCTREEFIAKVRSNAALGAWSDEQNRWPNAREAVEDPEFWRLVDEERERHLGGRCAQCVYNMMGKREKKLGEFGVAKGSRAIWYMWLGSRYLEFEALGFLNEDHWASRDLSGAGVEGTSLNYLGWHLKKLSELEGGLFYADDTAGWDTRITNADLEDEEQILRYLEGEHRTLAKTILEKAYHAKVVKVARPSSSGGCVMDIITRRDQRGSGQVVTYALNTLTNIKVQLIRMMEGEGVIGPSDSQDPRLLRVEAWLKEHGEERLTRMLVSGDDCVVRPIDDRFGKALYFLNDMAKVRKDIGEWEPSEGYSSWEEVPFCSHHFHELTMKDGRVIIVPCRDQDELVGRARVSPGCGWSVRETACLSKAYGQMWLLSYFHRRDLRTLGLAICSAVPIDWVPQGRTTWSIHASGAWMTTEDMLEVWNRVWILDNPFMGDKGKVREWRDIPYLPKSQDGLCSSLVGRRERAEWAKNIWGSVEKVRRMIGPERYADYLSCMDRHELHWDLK

Compound `C[C@@]1(F)[C@H](O)[C@@H](COP(=O)(O)OP(=O)(O)OP(=O)(O)O)O[C@H]1n1ccc(=O)[nH]c1=O` [sofosbuvir triphosphate, β-D-2’-deoxy-2’-fluoro-2’-C-methyluridine 5’-triphosphate] displayed a 50% inhibitory concentration (IC50) of 3.73 ± 0.033 µM.
Compound `CC(C)OC(=O)[C@H](C)N[P@](=O)(OC[C@H]1O[C@@H](n2ccc(=O)[nH]c2=O)[C@](C)(F)[C@@H]1O)Oc1ccccc1` [Sofosbuvir, L-Alanine, N-[[P(S),2’R]-2’-deoxy-2’-fluoro-2’-methyl-P-phenyl-5’-uridylyl]-,1-methyl ethyl ester] gave an IC50 of 3.45 ± 0.012 µM.
